Assay results as given in patent US10323045B2, “Thienopyrimidine derivatives as NIK inhibitors” (Janssen Pharmaceutica NV, priority 2014, dated 2019).

Columns and labels:
L-363 cells = test: Antiproliferative activity on L-363 cells (CellTiter-Glo); assay type: cell-based; settings: Homo sapiens, 72 hr of treatment, averaged values
Method: (§1) Determination of Antiproliferative Activity on LP-1, L-363 and JJN-3 Cells
(§2) All compounds tested were dissolved in DMSO and further dilutions were made in culture medium. Final DMSO concentration was 0.3% (v/v) in cell proliferation assays.
(§3) Viability was assessed using CellTiter-Glo cell viability assay kit (Promega). The human LP-1, L-363 and JJN-3 cells (DSMZ) were cultured in RPMI 1640 medium supplemented with 2 mM L-glutamine, and 10% fetal calf serum (PAA). Cells were routinely kept as suspension cells at 37° C. in a humidified 5% C02 atmosphere. Cells were passaged at a seeding density of 0.2×10^6/ml twice a week. Cells were seeded in black tissue culture treated 96-well plates (Perkin Elmer). Densities used for plating ranged from 2,000 to 6,000 cells per well in a total volume of 75 μl medium. After twenty four hours, drugs and/or solvents were added (25 μl) to a final volume of 100 μl. Following 72 hr of treatment plates were removed from the incubator and allowed to equilibrate to room temperature for approx 10 min. 100 μl CellTiter-Glo reagent was added to each well that was then covered (Perkin Elmer Topseal) and shaken on plate shaker for 10 min. Luminescence was measured on a HTS Topcount (Perkin Elmer). Within an experiment, the results for each treatment were the mean of 2 replicate wells.
(§4) For initial screening purposes, compounds were tested using a 9 point dilution curve (serial 1:3 dilutions). For each experiment, controls (containing no drug) and a blank incubation (containing cells read at the time of compound addition) were run in parallel. The blank value was subtracted from all control and sample values. For each sample, the mean value for cell growth (in relative light units) was expressed as a percentage of the mean value for cell growth of the control.

[1] = target: Recombinant Human NF-kappaB-inducing Kinase (NIK/MAP3K14) (Homo sapiens, UniProt Q99558); test: Inhibition of auto-phosphorylation of recombinant human NIK/MAP3K14 (AlphaScreen); assay type: biochemical; settings: GST-tagged NIK/MAP3K14 0.2 nM, 25 microM ATP, 1 h at 25° C.; averaged over all measurements on all batches; read-out: Alpha-Screen IC50
Chain of Recombinant Human NF-kappaB-inducing Kinase (NIK/MAP3K14) (Q99558 whole entry): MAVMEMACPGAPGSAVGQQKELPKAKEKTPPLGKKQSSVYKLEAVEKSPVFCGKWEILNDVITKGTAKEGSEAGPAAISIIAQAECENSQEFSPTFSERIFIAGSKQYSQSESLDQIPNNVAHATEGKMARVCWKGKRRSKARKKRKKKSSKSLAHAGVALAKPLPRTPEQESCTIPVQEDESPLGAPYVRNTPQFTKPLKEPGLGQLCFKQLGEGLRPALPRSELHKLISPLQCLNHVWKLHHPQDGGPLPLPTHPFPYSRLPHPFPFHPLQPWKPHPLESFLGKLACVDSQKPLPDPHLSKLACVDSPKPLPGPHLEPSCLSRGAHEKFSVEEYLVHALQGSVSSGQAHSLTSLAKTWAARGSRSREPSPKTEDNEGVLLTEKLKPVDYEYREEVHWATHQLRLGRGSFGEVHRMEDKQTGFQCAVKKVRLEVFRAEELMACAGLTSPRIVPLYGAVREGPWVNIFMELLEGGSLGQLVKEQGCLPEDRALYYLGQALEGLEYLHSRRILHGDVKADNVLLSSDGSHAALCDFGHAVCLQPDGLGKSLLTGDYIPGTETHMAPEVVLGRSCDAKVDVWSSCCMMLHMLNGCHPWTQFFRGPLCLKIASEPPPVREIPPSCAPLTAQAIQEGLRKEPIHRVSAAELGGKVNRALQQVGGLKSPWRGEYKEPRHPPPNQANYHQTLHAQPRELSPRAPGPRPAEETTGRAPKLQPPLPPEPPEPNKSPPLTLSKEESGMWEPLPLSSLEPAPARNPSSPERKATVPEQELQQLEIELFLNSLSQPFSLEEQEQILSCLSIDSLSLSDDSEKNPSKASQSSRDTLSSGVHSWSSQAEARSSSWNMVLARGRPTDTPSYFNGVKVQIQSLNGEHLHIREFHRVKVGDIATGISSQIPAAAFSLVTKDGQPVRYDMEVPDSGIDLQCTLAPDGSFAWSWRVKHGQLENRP
Method: Inhibition of Auto-phosphorylation of Recombinant Human NF-kappaB-inducing Kinase (NIK/MAP3K14) Activity (AlphaScreen®)
NIK/MAP3K14 auto-phosphorylation activity was measured using the AlphaScreen® (αscreen) format (Perkin Elmer). All compounds tested were dissolved in dimethyl sulfoxide (DMSO) and further dilutions were made in assay buffer. Final DMSO concentration was 1% (v/v) in assays. Assay buffer was 50 mM Tris pH 7.5 containing 1 mM EGTA (ethylene glycol tetraacetic acid), 1 mM DTT (dithiothreitol), 0.1 mM Na3VO4, 5 mM MgCl2, 0.01% Tween® 20. Assays were carried out in 384 well Alphaplates (Perkin Elmer). Incubations consisted of compound, 25 microM Adenosine-5′-triphosphate (ATP), and 0.2 nM NIK/MAP3K14. Incubations were initiated by addition of GST-tagged NIK/MAP3K14 enzyme, carried out for 1 h at 25° C. and terminated by addition of stop buffer containing anti-phospho-IKK Ser176/180 antibody. Protein A Acceptor and Glutathione-Donor beads were added before reading using an EnVision® Multilabel Plate Reader (Perkin Elmer). Signal obtained in the wells containing blank samples was subtracted from all other wells and IC50's were determined by fitting a sigmoidal curve to % inhibition of control versus Log10 compound concentration.

LP-1 cells = test: Antiproliferative activity on LP-1 cells (CellTiter-Glo); assay type: cell-based; settings: Homo sapiens, 72 hr of treatment, averaged values
Method: as §1, §2, §3, §4

JJN-3 cells = test: Antiproliferative activity on JJN-3 cells (CellTiter-Glo); assay type: cell-based; settings: Homo sapiens, 72 hr of treatment, averaged values
Method: as §1, §2, §3, §4

[2] = tested on: P-IKKα levels in L363 cells; test: Effect of compounds on P-IKKα levels in L363 cells; assay type: cell-based; settings: Homo sapiens, L-363; L363 cells with BAFF, 2 hr treatment, P-IKKα by sandwich immuno-assay (Mesoscale); averaged values; read-out: IKKα Cellular IC50
Method: Effect of Compounds on P-IKKα Levels in L363 Cells
All compounds tested were dissolved in DMSO and further dilutions were made in culture medium. Final DMSO concentration was 1% (v/v) in cell assays. The human L363 cells (ATCC) were cultured in RPMI 1640 medium supplemented with GlutaMax and 10% fetal calf serum (PAA). Cells were routinely maintained at densities of 0.2×10^6 cells per ml-1×10^6 cells per ml at 37° C. in a humidified 5% C02 atmosphere. Cells were passaged twice a week splitting back to obtain the low density. Cells were seeded in 96 well plates (Nunc 167008) at 2×10^6 per ml media in a volume of 75 μl per well plus 25 μl 1 μg/ml recombinant human B-cell activating factor (BAFF/BLyS/TNFSF13B). Seeded cells were incubated at 37° C. in a humidified 5% CO2 atmosphere for 24 hr. Drugs and/or solvents were added (20 μl) to a final volume of 120 μl. Following 2 hr treatment plates were removed from the incubator and cell lysis was achieved by the addition of 30 μl 5× lysis buffer followed by shaking on a plate shaker at 4° C. for 10 min. At the end of this incubation lysed cells were centrifuged at 800×g for 20 min at 4° C. and the lysate was assessed for P-IKKα levels by sandwich immuno-assay carried out in anti-rabbit antibody coated Mesoscale plates. Within an experiment, the results for each treatment were the mean of 2 replicate wells.
For initial screening purposes, compounds were tested using an 8 point dilution curve (serial 1:3 dilutions). For each experiment, controls (containing MG132 and BAFF but no test drug) and a blank incubation (containing MG132 and BAFF and 10 μM ADS 125117, a test concentration known to give full inhibition) were run in parallel. The blank incubation value was subtracted from all control and sample values. To determine the IC50 a sigmoidal curve was fitted to the plot of % inhibition of control P-IKKα levels versus Log10 compound concentration.

Row | SMILES | IC50 [1] [nM] | IC50 [2] [nM] | EC50 (L-363 cells) [nM] | EC50 (LP-1 cells) [nM] | EC50 (JJN-3 cells) [nM]
1 | CC(C)(O)C#Cc1cc2c(cn1)c(CCC(C)(C)O)cn2-c1nc(N)nc2ccsc12 [Compound 2] | 9 | 339 | 2800 | 10300 | 1470
2 | CN1CCC(c2cn(-c3nc(N)nc4ccsc34)c3cc(C#CC(C)(C)O)ncc23)CC1 [Compound 3] | 140 |  | 258 | 3980 | 540
3 | CC(C)c1cn(-c2nc(N)nc3ccsc23)c2cc(C#CC(C)(C)O)ncc12 [Compound 4] | 26 |  | 1580 | 3130 | 1740
4 | COCCCn1cc(-c2nc(N)nc3ccsc23)c2cc(C#CC(C)(C)O)ncc21 [Compound 5] | 19 | 64 | 395 | 1680 | 299
5 | COCCCc1cn(-c2nc(N)nc3ccsc23)c2cc(C#CC(C)(C)O)ncc12 [Compound 6] | 15 |  | 1040 | 3430 | 580
6 | CC(C)(O)C#Cc1cc2c(-c3nc(N)nc4ccsc34)cn(C3COC3)c2cn1 [Compound 7] | 32 |  | 696 | > 30000 | 1060
7 | [2H]C([2H])([2H])C(O)(C#Cc1cc2c(-c3nc(N)nc4ccsc34)cn(C3CCN(C4CC4)CC3)c2cn1)C([2H])([2H])[2H] [Compound 9] | 20 |  | 7 | 85 | 24
8 | [2H]C([2H])([2H])C(O)(C#Cc1cc2c(-c3nc(N)nc4ccsc34)cn(C3CN(C4CC4)C3)c2cn1)C([2H])([2H])[2H] [Compound 10] | 52 |  | 610 | 1480 | 494
9 | [2H]C([2H])([2H])C(O)(C#Cc1cc2c(-c3nc(N)nc4ccsc34)cn(C3CCCN(CC)C3)c2cn1)C([2H])([2H])[2H] (centres unmarked) [Compound 12] | 66 |  | 243 | 783 | 289
10 | [2H]C([2H])([2H])C(O)(C#Cc1cc2c(-c3nc(N)nc4ccsc34)cn(C3CCN(CC)C3)c2cn1)C([2H])([2H])[2H] (centres unmarked) [Compound 14] | 38 |  | 122 | 655 | 145

Further compounds by falling IC50 [1], results first:

Row | IC50 [1] [nM] | IC50 [2] [nM] | SMILES | EC50 (L-363 cells) [nM] | EC50 (LP-1 cells) [nM] | EC50 (JJN-3 cells) [nM]
11 | 112 |  | CC(O)(C#Cc1cc2c(-c3nc(N)nc4ccsc34)cn(C3CCN(C4CC4)CC3)c2cn1)C1CC1 (centres unmarked) [Compound 8] | 4 | 38 | 16
12 | 58 |  | [2H]C([2H])([2H])C(O)(C#Cc1cc2c(-c3nc(N)nc4ccsc34)cn(CC3CCCN3CC)c2cn1)C([2H])([2H])[2H] (centres unmarked) [Compound 13] | 36 | 75 | 60
13 | 26 |  | CC(O)(C#Cc1cc2c(-c3nc(N)nc4ccsc34)cn(C3CN(C4CC4)C3)c2cn1)C1CC1 (single isomer, unassigned) [Compound 11] | 461 | 918 | 652
14 | 15 | 104 | CC(C)(O)C#Cc1cc2c(ccn2-c2nc(N)nc3ccsc23)cn1 [Compound 1] | 979 | 2220 | 764
